ChEMBL document CHEMBL1141371, “Cytotoxic 5-alkylresorcinol metabolites from the leaves of Grevillea robusta” (J Nat Prod, 2007)
pIC50: −log10 of the molar value.

What was measured:
NCI-H460 = test: Cytotoxicity against human NCI-H460 cells; type: cell-based
SF-268 = test: Cytotoxicity against human SF268 cells; type: functional, cell-based
MCF7 = test: Cytotoxicity against human MCF7 cells; type: cell-based

| Compound | pIC50 (NCI-H460) | pIC50 (SF-268) | pIC50 (MCF7) |
| --- | --- | --- | --- |
| Oc1cc(O)c2c(c1)CCCCC/C=C/CCCCCCCc1cc(O)c-2c(O)c1 [DEHYDROGRAVIPHANE] | 4.60 | 4.48 | 4.51 |
| COc1cc(O)cc(CCCCCCCCCCCCCCc2cc(O)cc(O)c2)c1 [BISGRAVILLOL] | 4.54 | 4.53 | 4.53 |
| Oc1cc2cc(c1)Oc1c(O)cc(cc1O)CCCCCCCCCCCCCC2 [ROBUSTOL] | 4.62 | 4.49 | 4.49 |
| Oc1cc(O)cc(CCCCCCCCCCCCCCc2cc(O)cc(O)c2)c1 [BISNORSTRIATOL] | 4.54 | 4.53 | 4.53 |
| Oc1cc(O)c2c(c1)CCCCCCCCCCCCCCc1cc(O)c-2c(O)c1 | 4.64 | 4.56 | 4.54 |
| COc1cc(O)cc(CCCCCCC/C=C/CCCCCc2cc(O)cc(O)c2)c1 [DEHYDROBISGRAVILLOL] | 4.57 | 4.52 | 4.53 |
| Oc1cc2cc(c1)Oc1c(O)cc(cc1O)[C@H](O)CCCCCC/C=C/CCCCC2 [DEHYDROGRAVICYCLE] | 4.55 | 4.50 | 4.52 |
| CCCCCCCCCCCCCCCc1cc(O)cc(O)c1 [CARDOL] | 4.47 | 4.40 | 4.43 |
| Oc1cc(O)cc(CCCCC/C=C/CCCCCCCc2cc(O)cc(O)c2)c1 | 4.56 | 4.51 | 4.54 |
| COc1cc(O)cc2c1-c1c(O)cc(cc1O)CCCCCCCCCCCCCC2 | 4.54 | 4.51 | 4.51 |
| Oc1cc2cc(c1)Oc1c(O)cc(cc1O)[C@H](O)CCCCCCCCCCCCC2 | 4.57 | 4.49 | 4.51 |
| COc1cc(O)cc2c1-c1c(O)cc(cc1O)CCCCCCC/C=C/CCCCC2 | 4.55 | 4.54 | 4.53 |
| Oc1cc2cc(c1)Oc1c(O)cc(cc1O)CCCCCCC/C=C/CCCCC2 [DEHYDROROBUSTOL A] | 4.55 | 4.48 | 4.50 |
